Measured values taken from ChEMBL document CHEMBL2440076, “New triarylpyrazoles as broad-spectrum anticancer agents: design, synthesis, and biological evaluation” (Eur J Med Chem, 2013).

What was measured:
Type in all cases: functional
HT-29 = assay: Growth inhibition of human HT-29 cells assessed as cell growth at 5X10'-9 M after 48 hrs by sulforhodamine B assay; details: HT-29, 48 h, read-out: Activity
SF-539 = assay: Growth inhibition of human SF539 cells assessed as cell growth at 5X10'-5 M after 48 hrs by sulforhodamine B assay; details: SF-539, 48 h, read-out: Activity
SF-295 = assay: Growth inhibition of human SF295 cells assessed as cell growth at 5X10'-5 M after 48 hrs by sulforhodamine B assay; details: SF-295, 48 h, read-out: Activity
SW-620 = assay: Growth inhibition of human SW620 cells assessed as cell growth at 5X10'-5 M after 48 hrs by sulforhodamine B assay; details: SW-620, 48 h, read-out: Activity
K562 = assay: Growth inhibition of human K562 cells assessed as cell growth at 5X10'-5 M after 48 hrs by sulforhodamine B assay; details: K562, 48 h, read-out: Activity
MDA-MB-231 = assay: Growth inhibition of human MDA-MB-231 cells assessed as cell growth at 5X10'-6 M after 48 hrs by sulforhodamine B assay; details: MDA-MB-231, 48 h, read-out: Activity
TK-10 = assay: Growth inhibition of human TK10 cells assessed as cell growth at 5X10'-6 M after 48 hrs by sulforhodamine B assay; details: TK-10, 48 h, read-out: Activity
ACHN = assay: Growth inhibition of human ACHN cells assessed as cell growth at 5X10'-6 M after 48 hrs by sulforhodamine B assay; details: read-out: Activity
SK-MEL-28 = assay: Growth inhibition of human SK-MEL-28 cells assessed as cell growth at 5X10'-6 M after 48 hrs by sulforhodamine B assay; details: SK-MEL-28, 48 h, read-out: Activity
M14 = assay: Growth inhibition of human M14 cells assessed as cell growth at 5X10'-6 M after 48 hrs by sulforhodamine B assay; details: M14, 48 h, read-out: Activity
NCI-H460 = assay: Growth inhibition of human NCI-H460 cells assessed as cell growth at 5X10'-9 M after 48 hrs by sulforhodamine B assay; details: NCI-H460, 48 h, read-out: Activity
HOP-92 = assay: Growth inhibition of human HOP92 cells assessed as cell growth at 5X10'-9 M after 48 hrs by sulforhodamine B assay; details: HOP-92, 48 h, read-out: Activity
HOP-62 [1] = assay: Growth inhibition of human HOP62 cells assessed as cell growth at 5X10'-9 M after 48 hrs by sulforhodamine B assay; details: HOP-62, 48 h, read-out: Activity
HL-60(TB) = assay: Growth inhibition of human HL-60(TB) cells assessed as cell growth at 5X10'-9 M after 48 hrs by sulforhodamine B assay; details: HL-60, 48 h, read-out: Activity
CCRF-CEM = assay: Growth inhibition of human CCRF-CEM cells assessed as cell growth at 5X10'-9 M after 48 hrs by sulforhodamine B assay; details: read-out: Activity
LOX IMVI = assay: Growth inhibition of human LOXIMVI cells assessed as cell growth at 5X10'-6 M after 48 hrs by sulforhodamine B assay; details: read-out: Activity
HCT-116 = assay: Growth inhibition of human HCT116 cells assessed as cell growth at 5X10'-6 M after 48 hrs by sulforhodamine B assay; details: HCT-116, 48 h, read-out: Activity
HOP-62 [2] = assay: Growth inhibition of human HOP62 cells assessed as cell growth at 5X10'-6 M after 48 hrs by sulforhodamine B assay; details: HOP-62, 48 h, read-out: Activity
786-0 [3] = assay: Growth inhibition of human 786-0 cells assessed as cell growth at 5X10'-7 M after 48 hrs by sulforhodamine B assay; details: 786-0, 48 h, read-out: Activity
OVCAR-8 = assay: Growth inhibition of human OVCAR8 cells assessed as cell growth at 5X10'-7 M after 48 hrs by sulforhodamine B assay; details: OVCAR-8, 48 h, read-out: Activity
NCI-H23 = assay: Growth inhibition of human NCI-H23 cells assessed as cell growth at 5X10'-7 M after 48 hrs by sulforhodamine B assay; details: NCI-H23, 48 h, read-out: Activity
RPMI-8226 = assay: Growth inhibition of human RPMI8226 cells assessed as cell growth at 5X10'-7 M after 48 hrs by sulforhodamine B assay; details: RPMI-8226, 48 h, read-out: Activity
SR = assay: Growth inhibition of human SR cells assessed as cell growth at 5X10'-7 M after 48 hrs by sulforhodamine B assay; details: read-out: Activity
[4] = Growth inhibition of human Hs 578T cells assessed as cell growth at 5X10'-8 M after 48 hrs by sulforhodamine B assay; details: read-out: Activity
CAKI-1 = assay: Growth inhibition of human CAKI-1 cells assessed as cell growth at 5X10'-8 M after 48 hrs by sulforhodamine B assay; details: CAKI-1, 48 h, read-out: Activity
786-0 [5] = assay: Growth inhibition of human 786-0 cells assessed as cell growth at 5X10'-8 M after 48 hrs by sulforhodamine B assay; details: 786-0, 48 h, read-out: Activity
SK-OV-3 = assay: Growth inhibition of human SKOV3 cells assessed as cell growth at 5X10'-8 M after 48 hrs by sulforhodamine B assay; details: SK-OV-3, 48 h, read-out: Activity
KM12 = assay: Growth inhibition of human KM12 cells assessed as cell growth at 5X10'-8 M after 48 hrs by sulforhodamine B assay; details: KM12, 48 h, read-out: Activity
DU-145 = assay: Growth inhibition of human DU145 cells assessed as cell growth at 5X10'-5 M after 48 hrs by sulforhodamine B assay; details: DU-145, 48 h, read-out: Activity
PC-3 = assay: Growth inhibition of human PC3 cells assessed as cell growth at 5X10'-5 M after 48 hrs by sulforhodamine B assay; details: PC-3, 48 h, read-out: Activity
UACC-62 = assay: Growth inhibition of human UACC62 cells assessed as cell growth at 5X10'-5 M after 48 hrs by sulforhodamine B assay; details: UACC-62, 48 h, read-out: Activity
SK-MEL-5 = assay: Growth inhibition of human SK-MEL-5 cells assessed as cell growth at 5X10'-5 M after 48 hrs by sulforhodamine B assay; details: SK-MEL-5, 48 h, read-out: Activity
MOLT-4 = assay: Growth inhibition of human MOLT4 cells assessed as cell growth at 5X10'-8 M after 48 hrs by sulforhodamine B assay; details: MOLT-4, 48 h, read-out: Activity
[6] = Growth inhibition of human NCI-ADR-RES cells assessed as cell growth at 5X10'-9 M after 48 hrs by sulforhodamine B assay; details: read-out: Activity
OVCAR-3 = assay: Growth inhibition of human OVCAR3 cells assessed as cell growth at 5X10'-9 M after 48 hrs by sulforhodamine B assay; details: OVCAR-3, 48 h, read-out: Activity
Malme-3M = assay: Growth inhibition of human MALME-3M cells assessed as cell growth at 5X10'-9 M after 48 hrs by sulforhodamine B assay; details: read-out: Activity

| SMILES | growth at 0.005 µM (HT-29) | growth at 50 µM (SF-539) | growth at 50 µM (SF-295) | growth at 50 µM (SW-620) | growth at 50 µM (K562) | growth at 5 µM (MDA-MB-231) | growth at 5 µM (TK-10) | growth at 5 µM (ACHN) | growth at 5 µM (SK-MEL-28) | growth at 5 µM (M14) | growth at 0.005 µM (NCI-H460) | growth at 0.005 µM (HOP-92) | growth at 0.005 µM (HOP-62 [1]) | growth at 0.005 µM (HL-60(TB)) | growth at 0.005 µM (CCRF-CEM) | growth at 5 µM (LOX IMVI) | growth at 5 µM (HCT-116) | growth at 5 µM (HOP-62 [2]) | growth at 0.5 µM (786-0 [3]) | growth at 0.5 µM (OVCAR-8) | other results |
| --- | --- | --- | --- | --- | --- | --- | --- | --- | --- | --- | --- | --- | --- | --- | --- | --- | --- | --- | --- | --- | --- |
| COc1cc(-c2nn(-c3cccc(NC(=O)Nc4cc(C(F)(F)F)cc(C(F)(F)F)c4)c3)cc2-c2ccncc2)ccc1Cl | 110% | -78% | -73% | -65% | -16% | -84% | -34% | 2% | -78% | -29% | 99% | 77% | 100% | 100% | 101% | -90% | -52% | -92% | 92% | 51% | growth at 0.5 µM (NCI-H23): 85%; growth at 0.5 µM (RPMI-8226): 38%; growth at 0.5 µM (SR): 80%; growth at 0.05 µM [4]: 93%; growth at 0.05 µM (CAKI-1): 95%; growth at 0.05 µM (786-0 [5]): 102%; growth at 0.05 µM (SK-OV-3): 103%; growth at 0.05 µM (KM12): 107%; growth at 50 µM (DU-145): -80%; growth at 50 µM (PC-3): -31%; growth at 50 µM (UACC-62): -72%; growth at 50 µM (SK-MEL-5): -93%; growth at 0.05 µM (MOLT-4): 105%; growth at 0.005 µM [6]: 105%; growth at 0.005 µM (OVCAR-3): 114%; growth at 0.005 µM (Malme-3M): 90% |
| COc1cc(-c2nn(-c3cccc(NC(=O)Nc4ccc(Cl)c(Cl)c4)c3)cc2-c2ccncc2)ccc1Cl | 102% | -37% | -42% | 7% | 3% | -47% | 11% | 3% | 1% | -29% | 102% | 75% | 93% | 111% | 101% | -32% | 6% | -1% | 89% | 73% | growth at 0.5 µM (NCI-H23): 91%; growth at 0.5 µM (RPMI-8226): 45%; growth at 0.5 µM (SR): 78%; growth at 0.05 µM [4]: 94%; growth at 0.05 µM (CAKI-1): 93%; growth at 0.05 µM (786-0 [5]): 102%; growth at 0.05 µM (SK-OV-3): 106%; growth at 0.05 µM (KM12): 104%; growth at 50 µM (DU-145): -1%; growth at 50 µM (PC-3): -22%; growth at 50 µM (UACC-62): -63%; growth at 50 µM (SK-MEL-5): -90%; growth at 0.05 µM (MOLT-4): 113%; growth at 0.005 µM [6]: 104%; growth at 0.005 µM (OVCAR-3): 104%; growth at 0.005 µM (Malme-3M): 103% |
| COc1cc(-c2nn(-c3cccc(NC(=O)c4cccc(C(F)(F)F)c4)c3)cc2-c2ccncc2)ccc1Cl | 96% | -23% | -26% | 19% | 7% | 9% | 36% | 27% | 34% | 11% | 100% | 90% | 95% | 89% | 100% | 8% | 12% | 47% | 101% | 91% | growth at 0.5 µM (NCI-H23): 86%; growth at 0.5 µM (RPMI-8226): 88%; growth at 0.5 µM (SR): 65%; growth at 0.05 µM [4]: 91%; growth at 0.05 µM (CAKI-1): 98%; growth at 0.05 µM (786-0 [5]): 98%; growth at 0.05 µM (SK-OV-3): 103%; growth at 0.05 µM (KM12): 95%; growth at 50 µM (DU-145): -4%; growth at 50 µM (PC-3): 14%; growth at 50 µM (UACC-62): 13%; growth at 50 µM (SK-MEL-5): -51%; growth at 0.05 µM (MOLT-4): 98%; growth at 0.005 µM [6]: 96%; growth at 0.005 µM (OVCAR-3): 105%; growth at 0.005 µM (Malme-3M): 95% |
| O=C(Nc1cccc(-n2cc(-c3ccncc3)c(-c3ccc(Cl)c(O)c3)n2)c1)c1ccc(N2CCOCC2)c(C(F)(F)F)c1 | 101% | -18% | -59% | -31% | 3% | 8% | 94% | 25% | 5% | 18% | 103% | 85% | 91% | 98% | 98% | 10% | 35% | 67% | 95% | 86% | growth at 0.5 µM (NCI-H23): 96%; growth at 0.5 µM (RPMI-8226): 83%; growth at 0.5 µM (SR): 84%; growth at 0.05 µM [4]: 87%; growth at 0.05 µM (CAKI-1): 99%; growth at 0.05 µM (786-0 [5]): 95%; growth at 0.05 µM (SK-OV-3): 98%; growth at 0.05 µM (KM12): 93%; growth at 50 µM (DU-145): 26%; growth at 50 µM (PC-3): 7%; growth at 50 µM (UACC-62): -30%; growth at 50 µM (SK-MEL-5): -70%; growth at 0.05 µM (MOLT-4): 94%; growth at 0.005 µM [6]: 97%; growth at 0.005 µM (OVCAR-3): 98%; growth at 0.005 µM (Malme-3M): 88% |
| O=C(Nc1cccc(-n2cc(-c3ccncc3)c(-c3ccc(Cl)c(O)c3)n2)c1)Nc1cc(C(F)(F)F)cc(C(F)(F)F)c1 | 110% | -96% | -76% | -75% | -26% | -68% | -13% | 2% | -85% | -47% | 101% | 83% | 95% | 115% | 95% | -94% | -87% | -64% | 93% | 52% | growth at 0.5 µM (NCI-H23): 80%; growth at 0.5 µM (RPMI-8226): 49%; growth at 0.5 µM (SR): 72%; growth at 0.05 µM [4]: 94%; growth at 0.05 µM (CAKI-1): 92%; growth at 0.05 µM (786-0 [5]): 99%; growth at 0.05 µM (SK-OV-3): 102%; growth at 0.05 µM (KM12): 103%; growth at 50 µM (DU-145): -97%; growth at 50 µM (PC-3): -49%; growth at 50 µM (UACC-62): -89%; growth at 50 µM (SK-MEL-5): -94%; growth at 0.05 µM (MOLT-4): 109%; growth at 0.005 µM [6]: 102%; growth at 0.005 µM (OVCAR-3): 109%; growth at 0.005 µM (Malme-3M): 107% |
